From US7629317B2, “Control of growth and repair of gastro-intestinal tissues by gastrokines and inhibitors” (The University of Chicago, priority 2001, dated 2009)
Entries after “also recorded” stand apart in the source; their conditions may differ. Like-named read-outs stand apart in the source and are kept apart here.

B1: rhAMP-18: recombinant human AMP-18 with N-terminal His6-tag replacing the signal peptide, expressed in E. coli (SEQ ID NO: 27) (protein)
chain: MRGSHHHHHHGSNYNIDVNDDNNNAGSGQQSVSVNNEHNVANVDNNNGWDSWNSIWDYGNGFAATRLFQKKTCIVHKMKKEVMPSIQSLDALVKEKKLQGKGPGGPPPKGLMYSVNPNKVDDLSKFGKNIANMCRGIPTYMAEEMQEASLFFYSGTCYTTSVLWIVDISFCGDTVEN
modifications: N-terminal His6 tag

Tests used:
IEC-18 cells = assay: Growth of confluent cultures of IEC-18 cells (cell count); format: cell-based, rat; details: for EC50: read-out: half-maximal concentration (K1/2) for growth stimulation
Method: Confluent cultures of IEC-18 cells were prepared. One day later, medium was aspirated and replaced with 5 ml of DMEM containing CS (0.5%) and insulin, without (control) or with mitogenic peptide 58-99 (8 μg/ml). Sister plates receiving 1 ml medium and different amounts of peptide 67-85 were incubated at 1 hr at 38° C. on a CO2 incubator, and then an additional 4 ml of medium was added to each dish. Peptide 58-99 was added to 2 of the 4-sister plates at each concentration of peptide 67-85, and the number of cells was counted. […] Stimulation of cell growth by mitogenic peptide 58-99 was completely abolished by preincubation of cells with 0.25 μg/ml of peptide 67-85. […] Values for the number of cells per culture are shown relative to multiplication of cells exposed to the vehicle during the same period.
Urea (6 M) was employed to release proteins from the insoluble fraction solubilize rhAMP-18 containing the His6-tag (SEQ ID NO: 16), and make it available to bind to the Ni^2+-charged resin from which it was subsequently eluted with a gradient of imidazole (0 to 200 mM). The amount of eluted rhAMP-18 was measured using the BCA assay, and the appearance of a single band at the predicted size of 19-20 kD was confirmed by SDS-PAGE followed by immunoblotting. To determine if eluted rhAMP-18 renatured to assume a structure that was mitogenic, aliquots of the eluate (following removal of urea and imidazole by dialysis) were added to cultures of IEC-18 cells and the number of cells was counted 4 days later. […] AMP peptide 77-97 refers to the mature protein; same as peptide 97-117 of human precursor protein: Table 1. These observations indicate that biologically active recombinant human AMP-18 that can be utilized in diverse clinical situations is available. The mitogenic potency of rhAMP-18 is in the nanomolar range which would be expected for a native gastric cell growth factor that participates in the maintenance and repair of the stomach in vivo.
(§1) To characterize the capacity of gastric and intestinal cells to respond to AMP-18, AGS gastric adenocarcinoma cells, HAE human gastric antrum mucosa primary cultures transformed with SV40 large T antigen, rat diploid small intestinal epithelial cells of the IEC-6 (FIG. 15) and IEC-18 lines, NCI N-87 gastric carcinoma cells, and SK-GT5 gastroesophageal adenocarcinoma cells were studied; human WI-38 fibroblasts and HeLa cells served as non-GI control cell lines. Mitogenesis was assayed by performing cell counts 3 to 4 days after exposing cells to the agent of interest, trypsinizing the culture to prepare single cells, and confirming this while counting them in a hemocytometer.

AGS cells = assay: Growth of gastric epithelial AGS cells (cell count four days later); format: cell-based, human; details: peptide 77-97 8 μg/ml, EGF 50 ng/ml at saturating doses
Method: as §1

IEC-6 cells = assay: Growth of intestinal epithelial IEC-6 cells (cell count); format: cell-based, rat
Method: IEC-6 cells were grown in 60-mm dishes. […] Values are means±SE for 3 cultures.
as §1

HAE cells [1] = assay: Growth of human antrum epithelial (HAE) cells (cell count 4 days later); format: cell-based; details: peptide 77-97 8 μg/ml, EGF 50 ng/ml, 4 days
Method: (§2) To measure growth (left panel), HAE cells were plated in 60-mm dishes. Peptide 77-97 (8 μg/ml), or EGF (50 ng/ml), or both were added to the medium and the number of cells counted 4 days later. […] Values are means±SE for 3 cultures. To measure migration (right panel), cells were grown in 60-mm dishes to prepare a confluent monolayer. The medium was aspirated and replaced with fresh medium containing 0.01% calf serum (CS). The monolayer was mechanically wounded by scraping with a razor blade. Detached cells were removed by aspirating medium, and rinsing the remaining cells twice with fresh medium containing 0.01% CS. Fresh medium (5 ml) containing CS (0.01%) and insulin (100 U/L) was added to wounded cultures. Either peptide 77-97 (8 μg/ml), EGF (50 ng/ml), or both were added to duplicate cultures. Migration was assessed at 24, 48 and 72 hr after wounding by measuring the distance (in mm) that cells had migrated from the wound edge using a microscope eyepiece reticle (10-mm long; 0.1-mm markings). Migrating cells at 12 randomly chosen sites along a 0.25-mm stretch of the wound edge were measured at 40-fold magnification. Migration at 2 different sites was measured for each of 2 separate wounds made in each culture. Values are the mean distance cells moved into the denuded area from the edge of 4 different wounds in 2 cultures±SE.
as §1

HAE cells [2] = assay: Wound restitution (migration) of scrape-wounded HAE cell monolayers; format: cell-based, human; details: peptide 8 μg/ml, EGF 50 ng/ml; 24-72 hr
Method: as §2
Confluent monolayer cultures were mechanically wounded by scraping with a razor blade, and the distance that cells migrated from the wound edge was measured using a microscope eyepiece reticle.

MDCK cells = assay: Transepithelial electrical resistance (TER) of MDCK cell monolayers; format: cell-based; details: monochloramine 0.1 mM, 90 min; EGF 50 ng/ml
Method: Monolayer cultures of MDCK cells were grown on permeable polycarbonate filters (0.4-μm pore size) (Transell) in DMEM containing FBS (2%) without (control) or with peptide 77-97 (8 μg/ml) for 8 days. TER was measured 24 hr after the cells were plated, and at specified times thereafter using an epithelial volt-ohm meter (EVOM, Millipore). Following each measurement, medium containing FBS without or with peptide was changed (0, 48, and 144 hr), and additional peptide 77-97 (8 μg/ml) was added at 30 and 72 hr. At 72 hr, TER in cultures that received peptide 77-97 was twice as high as in control cultures. Values are means for 3 cultures; variance is <10% of the mean. TER was measured from 3 different areas on the filter.
(§3) Panel A: When a stable TER was reached (330 Ω·cm^2) in MDCK cell monolayers the medium was changed to DMEM containing FBS (0.2%), and either peptide 77-97 (8 μg/ml) or EGF (50 ng/ml). After 18 hr, peptide 77-97 or EGF were added to the specified wells. One hour later monochloramine (0.1 mM), like the other agents, was added to the apical and basal compartments of the Transwell. […] Panels B, C: Caco2/bbe (C2) subclone monolayers were grown on collagen-coated polycarbonate filters until a stable TER was reached (225 Ω·cm^2). Spent medium was replaced with fresh medium containing FBS (0.1%) alone or with peptide 77-97 (8 μg/ml). After 18 hr, monochloramine (0.3 mM, B) or indomethacin (0.1 mM, C) was added to both compartments of the Transwell. At time 0, cultures received either vehicle (control), vehicle plus oxidant or indomethacin, or peptide 77-97 and oxidant or indomethacin. TER of injured cultures treated with vehicle decreased by ˜35% at 90 min, whereas peptide-treated cultures declined ˜10%.

[3] = tested on: occludin, ZO-1, ZO-2, claudin-5, E-cadherin, JAM; assay: Accumulation of tight and adherens junction proteins in C2 cells (immunoblot of insoluble fraction, confocal microscopy); format: cell-based, human; details: 8 hr
Method: To find out how the peptide exerts its cytoprotective effect, C2 cell monolayers were treated with AMP peptide, and oxidant injury was induced with monochloramine 18 hours later. Changes in the levels of specific tight junction (TJ) proteins were checked. Cells were lysed, and proteins of the insoluble/particulate fraction were studied by immunoblotting. […] This observation represents the first evidence that AMP peptide enhances accumulation of specific TJ proteins in colonic epithelial cells. […] To carry out this experiment, C2 cells were exposed to AMP peptide for different periods of time, the NP-40-insoluble fraction was obtained, Western blots were prepared, and the amount of each immunoreactive protein was quantified. A 65% increase in immunoreactivity of each protein compared to control was detected for occludin after 2 hr, and for ZO-1 at 8 hr. Hsc73, which is constitutively expressed in these cells, was not altered by exposure to AMP peptide for up to 18 hr.
Confluent monolayers of C2 cells were treated with AMP peptide or vehicle for 8 hr. Cells were then collected, proteins in the NP-40-insoluble fraction were separated by SDS-PAGE, immunoblots were prepared, and the relative amounts of immunoreactive proteins were compared by densitometric analysis. […] These changes appear relatively specific for occludin, ZO-1, ZO-2, claudin-5, E-cadherin, and JAM because they were not observed for several other proteins localized in the TJ (claudin-1, claudin-2), adherens junction (β-catenin), plasma membrane (Na-K-2Cl cotransporter, α or β subunit of Na-K-ATPase), or cytosol (Rho A, hsc73).
To better understand the mechanism(s) by which AMP peptide enhances accumulation of TJ-associated proteins, experiments were performed to determine whether the peptide exerted its effect at the apical or basolateral surface of C2 cells. Monolayers of C2 cells were grown on Transwell filters, AMP peptide (8:g/ml) was added to the apical or basolateral compartment of the Transwell, and cells were harvested 8 hr later. The NP-40-insoluble fraction was obtained, its proteins separated, and immunoblots were prepared.

NCI N-87 cells = assay: Growth of NCI N-87 gastric carcinoma cells; format: cell-based; details: concentration-dependent
Method: as §1

SK-GT5 cells = assay: Growth of SK-GT5 gastroesophageal adenocarcinoma cells; format: cell-based; details: concentration-dependent
Method: as §1

Caco2/bbe (C2) cells = assay: Transepithelial electrical resistance (TER) of Caco2/bbe (C2) cell monolayers after injury; format: cell-based, human; details: monochloramine 0.3 mM, 45 min; rhAMP-18 100 nanomolar or peptide 3.7 micromolar pre-treatment; oxidant alone ~35%
Method: as §3
C2 cell monolayers were grown in DMEM containing FBS (5%) and transferrin (10 μg/ml) on collagen-coated polycarbonate filters until a stable TER was reached (225 Ωcm^2). At time 0, cells were exposed to no DSS (control), or DSS (4%) in the upper compartment of the Transwell. AMP peptide 77-97 (8 μg/ml) was added to the upper and lower compartments of the Transwell 1 day prior to the addition of DSS at time 0. TER of DSS-injured cultures treated with vehicle decreased by ˜70% at 45 min, whereas peptide-treated cultures declined ˜10% at that time. […] Values are means for ≧6 cultures.
Confluent C2 cell monolayers were prepared on Transwells until a stable TER was established. Medium was replaced with fresh medium containing FBS (0.1%) alone (control), or with either rhAMP-18 (100 nanomolar) or peptide 77-97 (3.7 micromolar). After 18 hr, monochloramine (0.3 mM) was added to both compartments of the Transwell, and cultures received either vehicle (control), vehicle plus oxidant, rhAMP-18 and oxidant, or peptide 77-97 and oxidant, after which TER was measured.
To determine whether AMP peptide could speed recovery of TER after DSS-induced colonic cell injury, a highly sought-after functional characteristic of an agent designed to treat IBD, C2 cell monolayers were exposed to DSS (5%) for 10 min which reduced TER to 33±6% of the control value (FIG. 29, left panel). DSS was removed by aspirating the medium and replacing it with fresh medium. AMP peptide 77-97 (8 μg/ml) or vehicle was added to the culture medium, and TER was measured 18 hr later. In the presence of the vehicle, TER increased from 33% to 66±7% of the control value, whereas cells exposed to AMP peptide reached a value 112±4% of control.
To determine if the cytoprotective effect of AMP peptide is mediated at the level of the actin cytoskeleton, C2 cell monolayers were exposed to cytochalasin D, an agent known to disrupt actin filaments and compromise barrier function (Madara et al., 1986).
To determine if AMP peptide could play a cytoprotective role in GDS, a study was carried out in C2 cell monolayers that were exposed to the PA-I lectin. […] Next the effect of AMP peptide was studied in the mouse model of P. aeruginosa-induced-GDS (Laughlin et al., 2000) using female Balb/c mice subjected to 30% hepatectomy, injection of a solution of living P. aeruginosa into the cecum, and food deprivation postoperatively. All 8 of the mice survived surgery.

[4] = tested on: stomach and intestinal epithelial cells; assay: Concentrations at which gastric peptide mediators exert their effects in culture; format: cell-based

| Molecule | increase in cell number (IEC-18 cells; 3 days, peptide 58-99 8 μg/ml, EGF 50 ng/ml, vehicle 290%) [%] | growth stimulation of AGS cells (in words) (AGS cells) | growth stimulation of IEC-6 cells (in words) (IEC-6 cells) | proliferation of HAE cells (in words) (HAE cells [1]) | migration from the wound edge compared with vehicle (HAE cells [2]) | loss of TER after oxidant exposure (MDCK cells) | accumulation of occludin and ZO-1 (specificity) ([3]; peptides 8 μg/ml, EGF 50 ng/ml) | growth of NCI N-87 cells (NCI N-87 cells) | growth of SK-GT5 cells (SK-GT5 cells) | concentration of maximal mitogenic effect (IEC-18 cells; FIG. 18) [nM] | growth stimulation of IEC-18 cells (in words) (IEC-18 cells; added alone, peptides up to 8 μg/ml) | EC50 (IEC-18 cells; confluent IEC-18 cultures, FIG. 13) [nM] | EC50 (IEC-18 cells; recently purified rhAMP-18, FIG. 18) [nM] | decline in TER after monochloramine (Caco2/bbe (C2) cells) [%] | immunoreactive ZO-1 and occludin versus vehicle-treated cells ([3]; 100 nanomolar, laser densitometry) | concentrations at which physiological effects can occur [4] [nM] |
| --- | --- | --- | --- | --- | --- | --- | --- | --- | --- | --- | --- | --- | --- | --- | --- | --- |
| EGF: polypeptide mitogen used for comparison at 50 ng/ml [reference compound] | 402 | stimulated growth; also recorded: mitogenic | stimulated | stimulated proliferation | stimulated cell movement | 35-40% | not replicated | stimulated | stimulated |  |  |  |  |  |  |  |
| B1 |  |  |  |  |  |  |  |  |  | 5 | stimulates cell proliferation to the same maximal extent | ~30 | ~5 | ~10 | about two-fold | < 50 |
